Series [1] deals with Caenorhabditis elegans. As to conditions: Application rate 10 micrograms per milliliter agar; evaluated after 24 h at 20° C.
Description: The activity of the compounds against Caenorhabditis elegans was determined by dissolving compounds in DMSO, then applying them to petri dishes containing Nematode Growth Medium agar to a final concentration of 10 micrograms (μg) compound per milliliter agar. Escherichia coli bacteria were grown on the plates to provide a food source for the larvae of Caenorhabditis elegans. The bacteria were heat-killed at 65° C. before compounds were added to the plates.
The plates with compound and heat-killed bacteria were infested with 10 microliter (μL) drops containing eggs from wild-type Caenorhabditis elegans worms. Adult worms were dissolved in potassium hydroxide (KOH) and bleach and washed in Ringers solution to generate the egg suspension. Each compound was screened with approximately 400 eggs, divided between two petri dishes. Egg hatching was evaluated after 24 h at 20° C. Mortality was averaged over the two plates.
In series [2] the test system is Pseudoperonospora cubensis. In words: Cucumber Downy Mildew foliar spray test, inoculated one day after treatment. Conditions: applied to foliage at 200 ppm, cucumber plants, read-out: Activity against Fungal Diseases PSPECU (percent disease control). The format is in vivo. The protocol:
Fungicide activity data are the level (in percent) at which the given disease was controlled when the given compound was applied to the foliage of the plants at 200 ppm. In a few cases (noted in the table) the compound was applied to the plants at 25 ppm or 3 ppm. The plants were inoculated with the fungus one day after treatment. ***=80-100% control; **=50-79% control; *=0-49% control. […] The activity of the compounds as effective fungicides was determined by applying the compounds to plants and observing control of fungal disease. […] All plants were inoculated with spores of the fungus the day after treatment, then incubated in an environment conducive to disease development. Disease severity was evaluated 4 to 25 days (d) later, depending on the speed of disease development. The following experiments were performed in the laboratory to determine the fungicidal efficacy of the compounds of the invention. Cucumber Downy Mildew (causal agent Pseudoperonospora cubensis; Bayer code […]): Cucumber plants (variety 'Bush Champion' or 'Bush Pickle Hybrid') were grown from seed in a soil-less peat-based potting mixture (Metromix) until the first true leaf was 20-80% expanded. Each pot contained 1 seedling. These plants were sprayed until wet with the formulated test compound. On the following day, the leaves were inoculated with an aqueous suspension of downy mildew sporangia and the plants were kept in high humidity for one day to permit sporangia to germinate and infect the leaf. The plants were then incubated in a growth chamber until disease developed on untreated control plants. […] The effectiveness of the test compounds at controlling disease when sprayed on leaves was determined by assessing the severity of disease on treated plants, then converting the severity to percent control based on the level of disease on untreated, inoculated plants.

The subject of series [3] is Septoria tritici. In words: Septoria Blotch of Wheat foliar spray test, inoculated one day after treatment. It counts as in vivo. As to conditions: Zymoseptoria tritici, wheat plants, read-out: Activity against Fungal Diseases SEPTTR (percent disease control); for pest or weed control at 200 ppm: applied to foliage at 200 ppm.
Series [4] deals with Puccinia recondita tritici. In words: Leaf Rust of Wheat foliar spray test, inoculated one day after treatment. It counts as in vivo. As to conditions: applied to foliage at 200 ppm, wheat plants, read-out: Activity against Fungal Diseases PUCCRT (percent disease control).
The subject of series [5] is Pyricularia oryzae. In words: whole plant or invertebrate. As to conditions: foliar, read-out: Activity against Fungal Diseases PYRIOR (percent disease control). It counts as in vivo.

In general, melting point refers to the temperature, or range, at which the solid turns liquid. `COc1cc(CCNc2ncnc3scnc23)ccc1O` [Compound 12, 2-methoxy-4-[2-(thiazolo[5,4-d]pyrimidin-7-ylamino)-ethyl]-phenol]: the melting point lay in the range of 151 to 154 °C.
ivermectin registered a Percent mortality in series [1] of 95%.
Take `COc1cc(CCNc2ncnc3scnc23)ccc1Oc1ccc(C(F)(F)F)cc1F` [Compound 30, {2-[4-(2-fluoro-4-trifluoromethylphenoxy)-3-methoxyphenyl]-ethyl}-thiazolo[5,4-d]pyrimidin-7-ylamine]: the pest or weed control at 200 ppm in series [2], in series [4] and in series [5] was 80 to 100% each time. For the same compound, in series [3] (Tested at 25 ppm), the pest or weed control at 25 ppm is 80 to 100%.
Regarding `COc1cc(CCNc2ncnc3scnc23)ccc1Oc1cc(C(F)(F)F)cc[n+]1[O-]` [Compound 42, {2-[3-methoxy-4-(1-oxy-4-trifluoromethylpyridin-2-yloxy)-phenyl]-ethyl}-thiazolo[5,4-d]pyrimidin-7-ylamine], the pest or weed control at 200 ppm in series [2], in series [3], in series [4] and in series [5] was 80 to 100% in each case.
Turning to `Cc1cc(CCNc2ncnc3scnc23)ccc1Oc1nc(C(F)(F)F)c(Cl)s1` [Compound 46, {2-[4-(5-chloro-4-trifluoromethylthiazol-2-yloxy)-3-methylphenyl]-ethyl}-thiazolo[5,4-d]pyrimidin-7-ylamine], the pest or weed control at 200 ppm in series [2], in series [3], in series [4] and in series [5] was 80 to 100% each time.

The values are drawn from US8921382B2, “Thiazolo[5,4-d] pyrimidines and their use as agrochemicals” (Dow AgroSciences, LLC., priority 2010, dated 2014).
